Test results from patent US10537607B2, “Treatment of autoimmune and/or inflammatory disease using novel caveolin modulators” (E&B TECHNOLOGIES LLC, priority 2013, dated 2020).
“Also recorded” adds a separate entry of the source.

Experiments:
[1] = test system: mustard oil-induced vascular permeability; format: in vivo, mouse; settings: mice, one-hour pretreatment, AP-Cav 1 mg/kg or same molar dose, vs carrier peptide alone, 30 min
Method: Plasma leakage in mouse skin was studied using the Miles assay as previously described. Briefly, male Swiss mice (30-35 g) were anesthetized and injected with Evans blue (30 mg/kg in PBS; Sigma). […] (5% in mineral oil), an analog of mustard oil (Pierce, Rockford, Ill.) was applied on the right ear with a cotton tip. The left ear was used as a control and was treated with mineral oil alone. After 30 minutes, the anesthetized animals were sacrificed, perfused, ears were removed, dried and weighed. Evans blue was extracted from the ears with formamide and quantified spectrophotometrically at 595 nm.

[2] = test system: VEGF-induced NO release (eNOS activity) in BAEC; experiment: VEGF-induced NO release in cultured BAEC; format: cell-based, bovine; settings: for effect on VEGF-induced NO release (in words) / inhibition of VEGF-induced NO release: 6 h pretreatment; for effect on basal (unstimulated) NO release: six-hour pretreatment, NO-specific chemiluminescence
Method: VEGF-induced NO release experiments were performed as previously described.
[…] Media was removed and fresh serum-free DMEM was added, with or without VEGF (10^−9 M) for 30 minutes. Media was collected, cells were trypsinized and counted, and nitrites levels in the supernatant were determined by using a Sievers NO chemiluminescence analyzer.

[3] = test system: dextran sulfate sodium colitis; experiment: Dextran sulfate sodium model of inflammatory bowel disease; format: in vivo, mouse; settings: C57B1/6 mice, DSS 2% in drinking water, 2.5 mg/kg i.p. daily from day 1
Method: C57B1/6 mice are fed dextran sulfate sodium 2% in the drinking water for 9 days. Body weights are measured daily. At the end of 9 days, mice are sacrificed and the first distal centimeter of the colon subject to histopathological analysis. Sections are scored according to the scoring system described in Jirkof et al., Burrowing is a sensitive behavioral assay for monitoring general wellbeing during dextran sulfate sodium colitis in laboratory mice. Laboratory animals. 2013, 47(4):274-83. doi: 10.1177/0023677213493409. PubMed PMID:23828853.

[4] = test system: multiple sclerosis; experiment: Treatment of patients diagnosed with multiple sclerosis; format: in vivo, human; settings: 80 mg per day by subcutaneous injection
Method: Patients diagnosed with MS, including relapsing remitting and primary progressive types, are treated with Endo-5 CavAB (SEQ ID NO.1/SEQ ID NO. 6) (or other caveolin analog) at 80 mg per day by subcutaneous injection. […] The changes in the patient receiving the treatment are measured using the Multiple Sclerosis Functional Composite. See, e.g., the website of the National MS Society: Clinical Study Measures.

[5] = test system: HUVEC; experiment: CPP imaging of live HUVEC (pulse/chase epifluorescence microscopy); format: cell-based, human; settings: for intracellular staining after pulse: carboxyfluorescein-Endo5 and rhodamine-AP, 10^−6M, 1 h at 37° C.; for intracellular staining after chase: two-hour chase in absence of CPP
Method: Freshly isolated HUVEC were grown in M199 media supplemented with glutamine, 10% FBS and endothelial cell growth supplement on Petri dishes with glass bottom. Since CPPs bind non-specifically to glass, the background fluorescence was reduced by pretreating glass-bottom Petri dishes with a blocking solution containing unlabelled AP and Endo5 for 30 minutes (5×10^−5 M) in colorless M199 media with 1% FBS.
After cell seeding, media was removed and carboxyfluorescin-labeled Endo5 and Rhodamine-labeled AP were added to cells (10^−5M) and cells were incubated at 37° C. and 5% CO2 for 1 hour (pulse). Media was removed, cells were rinsed once with warm culture media and peptide uptake was rapidly visualized on a Zess Axiovert inverted fluorescence microscope by performing a Z-stack of captured images followed by volume deconvolution (Openlab software). The new media was left on cells for an additional 2 hours (total 3 hours) to chase CPP localization, and cells were visualized again (chase).
In the present study, epifluorescence microscopy experiments were performed in live HUVEC to compare the uptake mechanism of Endo5 to AP. After blocking glass bottom Petri dishes with unlabeled AP and Endo5 to minimize non-specific binding of labeled peptides, freshly isolated HUVEC were grown to 50% confluent and labeled with a “pulse” of carboxyfluorescein-Endo5 and rhodamine-AP (10^−6M) for 1 h, rinsed, followed by a two-hour “chase” for a total of 3 hours.

[6] = test system: BAEC; experiment: Quantification of internalization of fluorophore-labelled peptides; format: cell-based, bovine; settings: cultured endothelial cells
Method: Cultured BAEC were grown in 6-well plates until confluence was reached. Cells were washed and incubated in 1 mL of DMEM containing labeled peptides (10^−6 M) for 1, 2, 4 or 6 hours at 37° C., washed three times with cold PBS containing 0.1 M glycine (pH 4) to remove non-specific surface staining.
After complete media removal, cells were trypsinized, centrifuged and proteins were extracted by adding 150 μL of SDS-based or Triton X-100 lysis buffer. Membranes were removed by centrifugation, and internalized peptides were quantified by using a fluorescence plate reader (Perseptive Biosystems).
Cells incubated with peptides for 5 minutes and washed as described were used as basal surface staining. Linearity of both fluorophores used was determined by performing a concentration-fluorescence curve using lysis solution. Experiments with each fluorophore were performed individually to prevent cross-interference.

[7] = test system: experimental autoimmune encephalitis; settings: experimental model of autoimmune encephalitis; cited from earlier work
[8] = test system: traumatic brain injury; experiment: Traumatic brain injury, controlled cortical impact model; format: in vivo, rat; settings: rats
Description: Sprague Dawley rats (10 week old) are anesthetized using 1-2% isoflurane and fixed in a stereotactic frame. The skull is surgically exposed and a craniectomy 2.5 mm in radius is made centered on coordinates −0.2 mm anterior and +0.2 mm lateral to midlineat the fronto-parietal cortex. A controlled cortical impactor (Pittsburgh Precision Instruments, Inc., Pittsburgh, Pa.) is used to deliver an impact using a velocity of 6.0 m/s and depth of 1.0 mm below the dura mater and duration of impact of 150 ms. The impactor is angled to impact the skull perpendicular to the brain at the point of impact. Animals are maintained at normal body temperature throughout the procedure. Following the impact, the incision is sutured and the animals are allowed to recover.
Neurological deficits are scored using the system of Clark assessed 24 and 48 hours post injury. See, Clark W et al., Citicoline treatment for experimental intracerebral hemorrhage in mice. Stroke; a journal of cerebral circulation. 1998; 29(10):2136-40. PubMed PMID: 9756595.
At 48 hours post TBI, rats are sacrificed and the brains sectioned and tissue processed for immunohistochemistry. […] See, Glushakov et al., Prostaglandin F2alpha FP receptor antagonist improves outcomes after experimental traumatic brain injury, Journal of neuroinflammation. 2013; 10(1):132. doi: 10.1186/1742-2094-10-132. PubMed PMID:24172576.

[9] = BAEC, peptide 10^−5 M, VEGF 10^−9 M 30 min

## Endo5 (RRPPR) with cargo DGIWKASFTTFTVTKYWFYR, caveolin-1 amino acids 82-101, fused to its C-terminus (RRPPRDGIWKASFTTFTVTKYWFYR; listed as Homo sapiens) [Endo5-Cav]
[1]
  inhibition of mustard oil-induced vascular leakage: 58%
[2]; BAEC, 10^−5 M, 4 hours pretreatment
  eNOS inhibition (VEGF-induced NO release), in words: complete eNOS inhibition
[2]; BAEC, Endo5-Cav 10^−5 M 6 h, AP 5×10^−5 M pretreatment
  inhibition of VEGF-induced NO release after pretreatment with AP: 30%
[2]; BAEC, Endo5-Cav 10^−5 M 6 h, Endo5 5×10^−5 M pretreatment
  inhibition of VEGF-induced NO release after pretreatment with Endo5: 13%
[2]; BAEC, construct 10^−5 M 6 h, AP or Endo5 5×10^−5 M
  fate of the inhibition of VEGF-induced NO release after pretreatment with either AP or Endo5: partially prevented
[2]; [9]
  effect on VEGF-induced NO release (in words): completely impaired; also recorded: near-maximum effect; also recorded: completely blocked
  inhibition of VEGF-induced NO release: 91%
[2]; BAEC, 10^−5 M
  effect on basal (unstimulated) NO release: no significant effect
[2]; inferred from 2 h Endo5-Cav vs 6 h AP-Cav pretreatment, 10^−5 M
  rate of uptake relative to AP-Cav: approximately three times

## Endo5-CavAB: 19-mer: Endo5 fused to Cav AB domain (amino acids 82-95 of human caveolin-1); second generation cavtratin (RRPPRDGIWKASFTTFTVT; listed as Homo sapiens)
[3]
  histopathologic score of the colon: improve the histopathologic sore
  weight loss at 9 days: reduce the weight loss
[2]; BAEC, peptide 2×10^−6 M
  inhibition of VEGF-induced NO release: 49%
[2]; [9]
  effect on VEGF-induced NO release (in words): completely blocked
[4]
  symptoms of MS (motor function, gait): improves the symptoms of MS

## RQIKIWFQNRRMKWKK (listed as Rattus norvegicus) [AP, 16-mer Antennapedia cell-permeable peptide, reference compound]
[2]; [9]
  effect on VEGF-induced NO release (in words): no significant effect
[2]; BAEC, 10^−5 M
  effect on basal (unstimulated) NO release: no significant effect
[5]
  intracellular staining after pulse: diffuse punctate cytoplasmic staining
  intracellular staining after chase: more concentrated rather than diffuse pattern

## RRPPR [Endo5, five-amino acid cell-permeable transport peptide]
[2]; [9]
  effect on VEGF-induced NO release (in words): no significant effect
[2]; BAEC, 10^−5 M
  effect on basal (unstimulated) NO release: no significant effect
[6]
  rate of uptake / internalization relative to AP: three times greater
[5]
  intracellular staining after pulse: diffuse punctate cytoplasmic staining
  intracellular staining after chase: more concentrated rather than diffuse pattern

## cavtratin: caveolin mimetic, a fusion peptide of a cell penetrating peptide to the caveolin scaffolding domain; first generation (RQIKIWFQNRRMKWKKDGIWKASFTTFTVTKYWFYR)
[7]
  blood brain barrier disruption: inhibited
  clinical score / functional deficits: improve; also recorded: ameliorates
  edema: block
  inflammatory cell (CD45+) invasion into the brain parenchyma: block; also recorded: inhibited
[3]
  histopathologic score of the colon: improve the histopathologic sore
  weight loss at 9 days: reduce the weight loss
[8]; 2.5 mg/kg i.p. immediately after TBI and at 24 hours, scored 24 and 48 hours post injury
  neurological deficits (Clark score): reduces the observed neurological deficits
[8]; 2.5 mg/kg i.p., 48 hours post TBI
  GFAP expression in the lesion penumbra: reduces GFAP expression
